Source: patent US7727980B2, “Tricyclic androgen receptor modulator compounds and methods” (priority 2001, dated 2010)
Read-outs that look alike come from different tables or passages of the source.

Legend:
human AR [1] = target: T1, human AR (Homo sapiens, UniProt P10275); test: AR whole cell competitive binding assay (3H-DHT), transfected COS-1 cells; design: expressed in transfected cells; transient transfection with pRShAR; settings: COS-1 cells, 1 nM 3H-DHT, Cheng-Prusoff from IC50
T1 sequence (P10275 1-920): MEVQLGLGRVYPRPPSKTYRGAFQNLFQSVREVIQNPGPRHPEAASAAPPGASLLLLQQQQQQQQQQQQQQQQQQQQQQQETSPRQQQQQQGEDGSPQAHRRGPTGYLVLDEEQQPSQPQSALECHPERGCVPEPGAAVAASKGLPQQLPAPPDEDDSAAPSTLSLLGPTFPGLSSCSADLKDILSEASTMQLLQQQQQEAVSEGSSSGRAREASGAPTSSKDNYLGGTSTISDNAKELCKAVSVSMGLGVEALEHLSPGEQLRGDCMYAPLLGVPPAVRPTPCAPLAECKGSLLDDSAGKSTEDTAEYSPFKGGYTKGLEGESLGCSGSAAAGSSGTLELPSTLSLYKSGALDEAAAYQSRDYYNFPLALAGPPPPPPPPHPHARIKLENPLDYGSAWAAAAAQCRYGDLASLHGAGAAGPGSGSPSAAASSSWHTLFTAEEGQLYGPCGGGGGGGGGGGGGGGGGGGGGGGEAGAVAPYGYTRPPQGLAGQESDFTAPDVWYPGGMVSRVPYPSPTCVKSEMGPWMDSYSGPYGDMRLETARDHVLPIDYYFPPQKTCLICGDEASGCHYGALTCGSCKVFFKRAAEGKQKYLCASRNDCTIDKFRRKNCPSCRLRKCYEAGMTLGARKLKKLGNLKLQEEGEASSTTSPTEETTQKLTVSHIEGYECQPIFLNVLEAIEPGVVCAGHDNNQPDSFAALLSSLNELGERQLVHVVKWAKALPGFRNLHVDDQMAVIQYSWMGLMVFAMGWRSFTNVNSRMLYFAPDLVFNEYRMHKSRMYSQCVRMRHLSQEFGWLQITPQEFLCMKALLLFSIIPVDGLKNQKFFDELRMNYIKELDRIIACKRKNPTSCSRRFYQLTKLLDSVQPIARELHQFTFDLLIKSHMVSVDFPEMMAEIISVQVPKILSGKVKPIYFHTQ
Protocol: AR Binding: For the whole cell binding assay, COS-1 cells in 96-well microtiter plates containing DMEM-10% FBS were transfected as described above with the following plasmid DNA: pRShAR (2 ng/well), pRS-β-Gal (50 ng/well) and pGEM (48 ng/well). Six hours after transfection, media was removed, the cells were washed with PBS and fresh media was added. The next day, the media was changed to DMEM-serum free to remove any endogenous ligand that might be complexed with the receptor in the cells.
Three replicates were used for each sample. […] The remaining media was removed, the cells were washed three times with PBS to remove unbound ligand and cells were lysed with a Triton X-100-based buffer.
For the saturation analyses, the difference between the total binding and the nonspecific binding, normalized by the β-Gal rate, was defined as specific binding. […] The Ki values were determined by application of the Cheng-Prusoff equation to the IC50 values, where: […]
After correcting for non-specific binding, IC50 values were determined. […] The IC50 value was determined graphically from a log-logit plot of the data. The Ki values were determined by application of the Cheng-Prusoff equation to the IC50 values, the labeled ligand concentration and the Kd of the labeled ligand.

human AR [2] = target: T1, human AR; test: Co-transfection assay, AR agonist activity, CV-1 cells; assay type: cell-based; design: expressed in transfected cells; host or cells: CV-1 cells (African green monkey kidney fibroblasts), transient transfection with pRShAR; settings: for AR Agonist CV-1 Cells Efficacy (%): percent maximal response relative to reference agonist DHT
Description: (§1) The co-transfection assay provides a method for identifying functional agonists and partial agonists which mimic, or antagonists which inhibit, the effect of native hormones and quantifying their activity for responsive IR proteins. In this regard, the co-transfection assay mimics an in vivo system in the laboratory. Importantly, activity in the co-transfection assay correlates very well with known in vivo activity, such that the co-transfection assay functions as a qualitative and quantitative predictor of a tested compounds in vivo pharmacology. See, e.g., T. Berger et al. 41 J. Steroid Biochem. Molec.
(§2) In the co-transfection assay, a cloned cDNA for an IR (e.g., human PR, AR or GR) under the control of a constitutive promoter (e.g., the SV 40 promoter) is introduced by transfection (a procedure to induce cells to take up foreign genes) into a background cell substantially devoid of endogenous IRs. This introduced gene directs the recipient cells to make the IR protein of interest. A second gene is also introduced (co-transfected) into the same cells in conjunction with the IR gene. This second gene, comprising the cDNA for a reporter protein, such as firefly luciferase (LUC), controlled by an appropriate hormone responsive promoter containing a hormone response element (HRE). This reporter plasmid functions as a reporter for the transcription-modulating activity of the target IR. Thus, the reporter acts as a surrogate for the products (mRNA then protein) normally expressed by a gene under control of the target receptor and its native hormone.
(§3) The co-transfection assay can detect small molecule agonists or antagonists of target IRs. Exposing the transfected cells to an agonist ligand compound increases reporter activity in the transfected cells. This activity can be conveniently measured, e.g., by increasing luciferase production, which reflects compound-dependent, IR-mediated increases in reporter transcription. […] To detect antagonists, the co-transfection assay is carried out in the presence of a constant concentration of an agonist to the target IR (e.g., progesterone for PR) known to induce a defined reporter signal. Increasing concentrations of a suspected antagonist will decrease the reporter signal (e.g., luciferase production). The co-transfection assay is therefore useful to detect both agonists and antagonists of specific IRs. Furthermore, it determines not only whether a compound interacts with a particular IR, but whether this interaction mimics (agonizes) or blocks (antagonizes) the effects of the native regulatory molecules on target gene expression, as well as the specificity and strength of this interaction.
(§4) CV-1 cells (African green monkey kidney fibroblasts) were cultured in the presence of Dulbecco's Modified Eagle Medium (DMEM) supplemented with 10% charcoal resin-stripped fetal bovine serum then transferred to 96-well microtiter plates one day prior to transfection.
(§5) The reporter plasmid, MTV-LUC, contains the cDNA for firefly luciferase (LUC) under control of the mouse mammary tumor virus (MTV) long terminal repeat, a conditional promoter containing an androgen response element. See e.g., Berger et al. supra. In addition, pRS-β-Gal, coding for constitutive expression of E. coli β-galactosidase (β-Gal), was included as an internal control for evaluation of transfection efficiency and compound toxicity.
(§6) Six hours after transfection, media was removed and the cells were washed with phosphate-buffered saline (PBS). […] Three to four replicates were used for each sample. Transfections and subsequent procedures were performed on a Biomek 1000 automated laboratory work station.
(§7) After 40 hours, the cells were washed with PBS, lysed with a Triton X-100-based buffer and assayed for LUC and β-Gal activities using a luminometer or spectrophotometer, respectively. For each replicate, the normalized response (NR) was calculated as: LUC response/β-Gal rate • where β-Gal rate=β-Gal·1×10^−5/β-Gal incubation time.

human AR [3] = target: T1, human AR; test: Co-transfection assay, AR antagonist activity in presence of DHT, CV-1 cells; assay type: cell-based; design: expressed in transfected cells; host or cells: CV-1 cells (African green monkey kidney fibroblasts), transient transfection with pRShAR; settings: CV-1 cells; for IC50: antagonist potency or IC50, DHT at its EC50 concentration; for AR Antagonist CV-1 Cells Efficacy (%): percent maximal inhibition, DHT at its EC50 concentration
Description: as §1, §2, §3, §4, §5, §6, §7

[4] = AR Agonist CV-1 Cells Potency (nM), agonist potency or EC50
[5] = AR Antagonist CV-1 Cells Potency (nM)

CC1(C)CCc2c(ccc3[nH]c(=O)cc(C(F)(F)F)c23)N1CC(F)(F)F [Compound 110, 8-(2,2,2-Trifluoroethyl)-5,6,7,8-tetrahydro-7,7-dimethyl-4-trifluoromethyl-pyridino[3,2-f]quinolin-2(1H)-one]
Ki (human AR [1]; AR Binding Ki (nM)): 21 nM
EC50 (human AR [2]; [4]): 21 nM
AR Agonist CV-1 Cells Efficacy (%) (human AR [2]): 106%
IC50 (human AR [3]; [5]): > 10000 nM
AR Antagonist CV-1 Cells Efficacy (%) (human AR [3]): na (na = not active (i.e. efficacy of <20 and potency of >10,000))

CCN1c2ccc3[nH]c(=O)cc(C(F)(F)F)c3c2C2CCCC21 (racemic) [Compound 121, (±)-4c,5,6,7,7a(cis),8-Hexahydro-8-ethyl-4-trifluoromethylcyclopentano-[g]pyrrolo[3,2-f]quinolin-2(1H)-one]
Ki (human AR [1]; AR Binding Ki (nM)): 7.6 nM
EC50 (human AR [2]; [4]): 43 nM
AR Agonist CV-1 Cells Efficacy (%) (human AR [2]): 97%
IC50 (human AR [3]; [5]): > 10000 nM
AR Antagonist CV-1 Cells Efficacy (%) (human AR [3]): na (na = not active (i.e. efficacy of <20 and potency of >10,000))

O=c1cc(C(F)(F)F)c2cc3c(cc2[nH]1)CCCN3CC(F)(F)F [Compound 198, 4-Trifluoromethyl-6-(2,2,2-trifluoroethyl)-6,7,8,9-tetrahydropyrido[2,3-g]quinolin-2(1H)-one]
Ki (human AR [1]; AR Binding Ki (nM)): 58 nM
EC50 (human AR [2]; [4]): 1.7 nM
AR Agonist CV-1 Cells Efficacy (%) (human AR [2]): 47%
IC50 (human AR [3]; [5]): > 10000 nM
AR Antagonist CV-1 Cells Efficacy (%) (human AR [3]): na (na = not active (i.e. efficacy of <20 and potency of >10,000))

O=c1cc(C(F)(F)F)c2c3c(ccc2[nH]1)N(CC(F)(F)F)C1CCCC31 (racemic) [Compound 119, (±)-4c,5,6,7,7a(cis),8-Hexahydro-8-(2,2,2-trifluoroethyl)-4-trifluoromethylcyclopentano-[g]pyrrolo[3,2-f]quinolin-2(1H)-one]
Ki (human AR [1]; AR Binding Ki (nM)): 2.6 nM
EC50 (human AR [2]; [4]): 2.5 nM
AR Agonist CV-1 Cells Efficacy (%) (human AR [2]): 94%
IC50 (human AR [3]; [5]): > 10000 nM
AR Antagonist CV-1 Cells Efficacy (%) (human AR [3]): na (na = not active (i.e. efficacy of <20 and potency of >10,000))

O=c1cc(C(F)(F)F)c2c3c(ccc2[nH]1)N(CC(F)(F)F)C1CCCCC31 (racemic) [Compound 132, (±)-4c,5,6,7,8,8a(cis),9-Heptahydro-9-(2,2,2-trifluoroethyl)-4-trifluoro-methyl-9H-cyclohexano[g]pyrrolo[3,2-f]quinolin-2(1H)-one]
Ki (human AR [1]; AR Binding Ki (nM)): 21 nM
EC50 (human AR [2]; [4]): 4.8 nM
AR Agonist CV-1 Cells Efficacy (%) (human AR [2]): 70%
IC50 (human AR [3]; [5]): > 10000 nM
AR Antagonist CV-1 Cells Efficacy (%) (human AR [3]): na (na = not active (i.e. efficacy of <20 and potency of >10,000))

O=c1cc(C(F)(F)F)c2c3c(ccc2[nH]1)N(CC(F)(F)F)C1CCCC31 (single isomer, unassigned; (-)) [Compound 179, (−)-4c,5,6,7,7a(cis),8-Hexahydro-8-(2,2,2-trifluoroethyl)-4-trifluoromethylcyclopentano-[g]pyrrolo[3,2-f]quinolin-2(1H)-one]
Ki (human AR [1]; AR Binding Ki (nM)): 4.1 nM
EC50 (human AR [2]; [4]): 1.3 nM
AR Agonist CV-1 Cells Efficacy (%) (human AR [2]): 91%
IC50 (human AR [3]; [5]): > 10000 nM
AR Antagonist CV-1 Cells Efficacy (%) (human AR [3]): na (na = not active (i.e. efficacy of <20 and potency of >10,000))

CC1(C)C=Cc2c(ccc3[nH]c(=O)cc(C(F)(F)F)c23)N1 [Compound 106, 7,8-Dihydro-7,7-dimethyl-4-trifluoromethylpyridino[3,2-f]quinolin-2(1H)-one]
Ki (human AR [1]; AR Binding Ki (nM)): 45 nM
EC50 (human AR [2]; [4]): 12 nM
AR Agonist CV-1 Cells Efficacy (%) (human AR [2]): 108%
IC50 (human AR [3]; [5]): > 10000 nM
AR Antagonist CV-1 Cells Efficacy (%) (human AR [3]): na (na = not active (i.e. efficacy of <20 and potency of >10,000))

O=c1cc(C(F)(F)F)c2c3c(ccc2[nH]1)N(CC(F)(F)Cl)C1CCCC31 (racemic) [Compound 129, (±)-4c,5,6,7,7a(cis),8-Hexahydro-8-(2,2,2-chlorodifluoroethyl)-4-trifluoromethylcyclopentano[g]pyrrolo[3,2-f]quinolin-2(1H)-one]
Ki (human AR [1]; AR Binding Ki (nM)): 3.2 nM
EC50 (human AR [2]; [4]): 1.6 nM
AR Agonist CV-1 Cells Efficacy (%) (human AR [2]): 79%
IC50 (human AR [3]; [5]): > 10000 nM
AR Antagonist CV-1 Cells Efficacy (%) (human AR [3]): na (na = not active (i.e. efficacy of <20 and potency of >10,000))

O=c1cc(C(F)(F)F)c2c(ccc3c2c2ccccc2n3CC(F)(F)F)[nH]1 [Compound 158, 9-(2,2,2-Trifluoroethyl)-4-trifluoromethyl-9H-benzo[g]pyrrolo[3,2f]quinolin-2(1H)-one]
Ki (human AR [1]; AR Binding Ki (nM)): 7.1 nM
EC50 (human AR [2]; [4]): 7.9 nM
AR Agonist CV-1 Cells Efficacy (%) (human AR [2]): 59%
IC50 (human AR [3]; [5]): > 10000 nM
AR Antagonist CV-1 Cells Efficacy (%) (human AR [3]): na (na = not active (i.e. efficacy of <20 and potency of >10,000))

6-Methyl-4-trifluoromethyl-7H-pyrrolo[3,2-f]quinolin-2(1H)-one [Compound 112]
Ki (human AR [1]; read-out: AR Binding Ki): 119 nM
EC50 (human AR [2]; agonist potency or EC50, read-out: AR Agonist CV-1 Cells Potency): > 10000 nM
AR Agonist CV-1 Cells Efficacy (%) (human AR [2]): na (na = not active (i.e. efficacy of <20 and potency of >10,000))
IC50 (human AR [3]; read-out: AR Antagonist CV-1 Cells Potency): 10 nM
AR Antagonist CV-1 Cells Efficacy (%) (human AR [3]): 75%
